# Reference: patent US20210155990A1, “NF-KB REGULATED GENE EXPRESSION ASSAY FOR ASSESSING EFFICACY OF MALT1 INHIBITORS” (Janssen Pharmaceutica NV, priority 2019, published 2021)
# Columns and labels:
# [1] = system: MALT1 regulated gene expression in NHL whole blood; conditions: 100 μM 2 h, PMA-stimulated samples
# Description: Then, aliquots were stimulated with CD3 and CD28 antibodies (1 ug/ml each), PMA (20 ng/ml) and Ionomycin (1 μg/mL), or unstimulated (PBS) for four hours. Following stimulation, the treated blood was transferred into a PAXgene tube (Qiagen; Hilden, Germany) and RNA was extracted using the PAXgene RNA kit.
# Gene expression was measured using 100 ng of RNA extracted from the whole blood in the Pan-Cancer Immune Profiling kit (NanoString; Seattle, Wash.) according to the manufacturer's instructions. Gene expression was normalized across samples using NanoString nSolver software. […] Briefly, log2-scaled, normalized NanoString counts were fit to a linear model (which incorporated the patient of origin) and moderated t-statistics, along with the associated Benjamini-Hochberg (BH) corrected p-values, were computed by empirical Bayes moderation of the standard errors towards a common value.
# [2] = system: T cells (CD4+ and CD8+) in NHL blood; test: CD69 expression on T cells, NHL peripheral whole blood, anti-CD3/anti-CD28 stimulation (IFC); assay type: cell-based, human; conditions: 200 μM overnight, anti-CD3/anti-CD28 6 hours
# Description: (§1) Both tubes were mixed well. The treated blood mixture was transferred at 3 mL per well to a 6-well polystyrene culture plate (Falcon, cat. #353046) and incubated overnight in a humidified incubator at 37° C. with 5% CO2.
# (§2) The solution was mixed by pipetting with a 1 mL pipette. The plates were incubated in a humidified incubator at 37° C. with 5% CO2 for an additional 6 hours.
# (§3) The next day, blood was treated with anti-CD3 and anti-CD28 stimulatory antibodies for 6 hours as described in Example 1 or left untreated. After treatment with the stimulatory antibodies, the red blood cells were lysed using multi-species lysis buffer, and the white blood cells were stained with anti-CD4 and anti-CD8 antibodies to label T cells and an anti-CD69 antibody to measure early T cell activation. Frequency of CD69-positive T cells (CD4+ and CD8+) was measured by IFC.
# [3] = system: NF-κB2, TNFSF10, APOE, PYCARD expression; test: Gene expression in T-cells and PBMCs purified from NHL blood without stimulation (Example 9); assay type: cell-based, human; conditions: no stimulation, 24 hours
# Description: Peripheral blood was collected from five NHL patients, and the peripheral blood was allowed to stand overnight. Then, the peripheral blood was treated for 24 hours with a MALT inhibitor or DMSO control. PBMCs were purified from the unstimulated blood using a ficoll density gradient and T-cells were purified using CD3 Beads (Miltenyi) using the manufacturers protocol. Purified cells were lysed in RLTplus (Qiagen) and RNA was extracted from the purified cells using an AllPrep kit (Qiagen). Gene expression was measured using 100 ng of RNA in the Pan-Cancer Immune Profiling kit (NanoString) according to the manufacturer's instructions. Gene expression signatures were compared between the MALT inhibitor treated and DMSO treated samples.
# [4] = Oral bioavailability (description)
# [5] = system: T cells (CD4+ and CD8+) in normal blood; test: CD69 expression on T cells, normal peripheral whole blood, anti-CD3/anti-CD28 stimulation (IFC); assay type: cell-based, human; conditions: 200 μM overnight, anti-CD3/anti-CD28 6 hours
# Description: as §1, §2, §3
# [6] = system: MALT1 regulated gene expression in NHL whole blood; conditions: 200 μM 24 h, anti-CD3/CD28 four hours
# Description: (§4) Peripheral blood was collected from three NHL and two CLL patients. […] Prior to stimulation and following stimulation, the treated blood was transferred into a PAXgene tube (Qiagen; Hilden, Germany) and RNA was extracted using the PAXgene RNA kit. Gene expression was measured using 100 ng of RNA extracted from the whole blood in the Pan-Cancer Immune Profiling kit (NanoString; Seattle, Wash.) according to the manufacturer's instructions.
# [7] = system: NF-κB (p50) nuclear translocation in B (CLL) cells; test: NF-κB nuclear translocation in B cells from CLL PBMCs, anti-IgM 6 hours (Example 6); assay type: cell-based, human; conditions: CLL PBMC, overnight compound
# Description: Cells were then treated with anti-IgM or left untreated for 6 hours. After stimulation, PBMC were fixed using CytoFix buffer and permeabilized using 0.1% Triton X-100 solution. Cells were then stained with anti-CD19 to label B (CLL) cells, anti-CD4 and anti-CD8 to label T cells, Hoechst 33342 to label nuclei, and anti-p105/p50 to label NF-kB subunit. Samples were analyzed on ImageStreamX to evaluate NF-kB nuclear localization in B cells or T cells. […] Statistical significance was determined using Student's t-test in Microsoft Excel.
# [8] = system: IL2, an NF-κB regulated gene; test: IL2 expression in purified T-cells and PBMCs from NHL blood (Example 8); assay type: cell-based, human; conditions: T-cells and PBMC from NHL blood; 24 hours; anti-CD3/CD28 six hours
# Description: The effect of a MALT inhibitor was analyzed utilizing gene expression signatures from purified T-cells and PBMCs from Non-Hodgkin's lymphoma patients. Peripheral blood was collected from five NHL patients, and the peripheral blood was allowed to stand overnight. Then, the peripheral blood was treated for 24 hours with a MALT inhibitor or DMSO control. The blood was then stimulated with monoclonal antibodies against CD3 and CD28 for six hours. Prior to stimulation and following stimulation, PBMC were purified from the treated blood using a ficoll density gradient and T-cells were purified using CD3 Beads (Miltenyi) using the manufacturers protocol. Purified cells were lysed in RLTplus (Qiagen) and RNA was extracted from the purified cells using an AllPrepkit (Qiagen). Gene expression was measured using 100 ng of RNA in the Pan-Cancer Immune Profiling kit (NanoString) according to the manufacturer's instructions.
# [9] = system: MALT1 regulated gene expression in CLL whole blood; conditions: 200 μM 24 h, anti-CD3/CD28 four hours
# Description: as §4
# [10] = system: NF-κB (p50) nuclear translocation in T cells; test: NF-kB nuclear translocation in T cells from NHL whole blood by imaging flow cytometry (Example 4); assay type: cell-based, human
# Description: as §2
# Frozen or fresh cells treated with the experimental conditions were obtained. For example, T cells in blood samples could be activated and the PBMCs containing the activated T cells could be isolated using the method described in Example 1. Alternatively, PBMCs in blood samples could be activated and subject to the imaging flow cytometry analysis directly without isolation. If the samples were whole blood, a minimum of 1 mL of blood was used for each test in this experiment. However, less than 1 mL whole blood can also be used in the assay. […]
# The samples were imaged on an AMNIS® […]® X Mark II imaging flow cytometer (MilliporeSigma, Burlington, Mass.) immediately, using 60× magnification, and the data was analyzed in IDEAS software using an internalization module, e.g., to evaluate frequency of CD4+ and CD8+ T cells or CLL cells with nuclear enrichment of p50.
# The next day, the mixture samples were treated with anti-CD3 and anti-CD28 stimulatory antibodies following a procedure as that described in Example 1. […] Samples were analyzed on ImageStreamX to evaluate NF-κB nuclear localization in the CD4 and the CD8 positive T cells.
# [11] = system: proteases, caspases, protein kinases, and G-protein-coupled receptors; test: Binding inhibition panel at single dose; conditions: single dose of either 1 μM or 10 μM
# [12] = system: NF-κB (p50) nuclear translocation in CD19-positive B (CLL) cells; test: NF-κB nuclear translocation in B cells from CLL PBMCs, anti-IgM 30 minutes (Example 5); assay type: cell-based, human; conditions: 6 hours compound
# Description: Alternatively, B cells can also be activated by beads coated with anti-IgM antibody. After the stimulation, PBMCs were fixed using CytoFix buffer and permeabilized using 0.1% Triton X-100 solution. Cells were then stained with anti-CD19 to label B (CLL) cells, Hoechst 33342 to label nuclei, and anti-p105/p50 to label NF-κB subunit. Samples were analyzed on ImageStreamX to evaluate NF-κB nuclear localization in the CD19-positive cells. […] Statistical significance was determined using Student's t-test in Microsoft Excel.
# [13] = system: DLBCL cell lines; test: Growth of DLBCL cell lines in vitro (nonclinical studies); assay type: cell-based
# [14] = system: NF-κB proteins (p50 and RelB) in CLL cells; conditions: CLL cells treated in vitro; ELISA; cited from earlier work
Compound,"gene expression of ICOS, POU2F2, CCR4, and CTLA4 [1]",genes upregulated [1],surface expression of CD69 on T cells [2],APOE expression ([3]; purified PBMCs),PYCARD expression ([3]; purified PBMCs),NF-κB2 expression ([3]; purified T-cells),TNFSF10 expression ([3]; purified T-cells),oral bioavailability [4],surface expression of CD69 on CD4+ and CD8+ T cells [5],stimulation induced upregulation of CXCL10 [6],NF-κB nuclear translocation in B cells activated by anti-IgM [7],stimulation induced upregulation of IL2 [8],stimulation induced upregulation of CXCL10 [9],"NFκB nuclear translocation in T cells (canonical NF-κB signaling) ([10]; CD3/CD28 stimulation, dosage dependent)","IC50 ([10]; Homo sapiens, T-cell, overnight, CD3/CD28 stimulation 6 h, read-out: IC50, NFκB nuclear translocation in T cells)","binding inhibition of proteases, caspases, protein kinases, and G-protein-coupled receptors [11]",NF-κB nuclear translocation in activated B cells [12],growth of CD79b-mutant DLBCL cell lines [13],growth of ibrutinib-resistant DLBCL cell lines harboring BTK C481S or CARD11 mutations [13],nuclear translocation of NF-κB proteins (p50 and RelB) [14]
"O=C(Nc1ccnc(C(F)(F)F)c1)c1cnn(-c2cccc3c(=O)[nH]ccc23)c1C(F)(F)F [Compound A, 1-(1-oxo-1,2 dihydroisoquinolin-5-yl)-5 (trifluoromethyl)-N-[2 (trifluoromethyl)pyridin-4 yl]-1H-pyrazole-4 carboxamide]",downregulated,no genes were significantly upregulated,significantly inhibited,repressed,repressed,repressed,repressed,orally bioavailable,not affected,repressed,inhibited,repressed,repressed,completely blocked,~9.5 µM,did not show significant binding inhibition,inhibited,inhibit growth,inhibit growth,
COCCOc1nc(-c2ccc(Cl)c(Cl)c2)n(-c2ccc(NC(=O)CCl)cc2)n1 [MI-2],,,,,,,,,,,,,,,,,,,,suppress
